# Measured values taken from PMC10383864, “Novel 2-Sulfanylquinazolin-4(3H)-one Derivatives as Multi-Kinase Inhibitors and Apoptosis Inducers: A Synthesis, Biological Evaluation, and Molecular Docking Study” (Molecules, 2023).
# Where two headings read alike, the source gives them in different places.
# Legend:
# [1] = MTT cytotoxicity assay, normal human cell line; type: cell-based; conditions: human, WI38 cells (normal human cells), 24 h treatment, mean ± SD of three experiments, read-out: In Vitro Cytotoxicity IC50 WI38
# Procedure: (§1) In addition, the safety profile of the 2-sulfanylquinazolin-4(3H)-one derivatives was evaluated against normal human cells (WI38) […]. The standard MTT (3-(4,5-dimethylthiazol-2-yl)-2,5 diphenyl tetrazolium bromide) colorimetric assay protocol was used, as described by Mosmann. […] The results were expressed as growth inhibitory concentration (IC50) values.
# (§2) The cell lines were obtained from ATCC (American Type Culture Collection). […] After incubation, the cells were treated with different concentrations of the synthesized compounds and incubated for 24 h. Afterward, the cells were washed with PBS, and 20 µL of MTT solution at 5 mg/mL was added, all incubated for 4 h. The MTT solution was discarded, and 100 µL of dimethyl sulfoxide (DMSO) was added per well. […] The relative cell viability in percentage was calculated as (A570 of treated cells/A570 of untreated cells) × 100.
# MDA-MB-231 cells = assay: MTT cytotoxicity assay; type: cell-based, human; conditions: MDA-MB-231, MTT, 24 h treatment, mean ± SD of three experiments, read-out: In Vitro Cytotoxicity IC50 MDA-MB-231
# Procedure: as §1, §2
# HeLa cells = assay: MTT cytotoxicity assay; type: cell-based, human; conditions: 24 h treatment, mean ± SD of three experiments, read-out: In Vitro Cytotoxicity IC50 HeLa
# Procedure: as §1, §2
# MCF-7 cells = assay: MTT cytotoxicity assay; type: cell-based, human; conditions: MCF-7, MTT, 24 h treatment, mean ± SD of three experiments, read-out: In Vitro Cytotoxicity IC50 MCF-7
# Procedure: as §1, §2
# HepG2 cells = assay: MTT cytotoxicity assay; type: cell-based, human; conditions: 24 h treatment, mean ± SD of three experiments, read-out: In Vitro Cytotoxicity IC50 HepG2
# Procedure: as §1, §2
# WI38 cells = assay: MTT cytotoxicity assay, normal human cell line; type: cell-based; conditions: 24 h treatment, mean ± SD of three experiments, read-out: In Vitro Cytotoxicity IC50 WI38
# Procedure: as §1, §2
SMILES,IC50 at 24 h [1] [µM],"IC50 (MDA-MB-231 cells; Homo sapiens, MDA-MB-231, 24 h) [µM]","IC50 (HeLa cells; Homo sapiens, 24 h) [µM]","IC50 (MCF-7 cells; Homo sapiens, MCF7, 24 h) [µM]","IC50 (HepG2 cells; Homo sapiens, HepG2, 24 h) [µM]",melting point [°C],IC50 (WI38 cells) [µM],IC50 (MDA-MB-231 cells) [µM],IC50 (HeLa cells) [µM],IC50 (MCF-7 cells) [µM],IC50 (HepG2 cells) [µM]
"Cc1ccc(CSc2nc3ccc(F)cc3c(=O)n2-c2ccc(F)cc2)cc1 [Compound 5a, 3-(4-fluoro-Arenyl)-6-fluoro-2-(4-methyl-benzylsulfanyl)-3H-quinazolin-4-one]",28.7 ± 2.2,79.1 ± 4,83.2 ± 4.1,86 ± 4.4,> 100,166 to 168,–,–,–,–,–
"Cc1ccc(CSc2nc3ccc(F)cc3c(=O)n2-c2ccccc2)cc1 [Compound 5b, 6-Fluoro-2-(4-methyl-benzylsulfanyl)-3-Arenyl-3H-quinazolin-4-one]",> 100,78.3 ± 3.9,> 100,91.2 ± 4.8,85 ± 4.6,158 to 160,–,–,–,–,–
"Cc1ccc(-n2c(SCc3ccccc3)nc3ccc(F)cc3c2=O)cc1 [Compound 5c, 2-Benzylsulfanyl-6-fluoro-3-(4-methyl-Arenyl)-3H-quinazolin-4-one]",–,–,–,–,–,156 to 158,40.9 ± 2.6,26.9 ± 1.9,31.2 ± 2.1,51.9 ± 3.1,34.3 ± 2.4
